Test system: rat lens
Experiment: Lens protein content in peptide-treated rat lenses
Assay type: cell-based, Wistar rat
Settings: 10 µM peptide, 96 h
Description: Eyes were enucleated from 4 months old Wistar rats, obtained from National Center for Laboratory Animal Services, National Institute of Nutrition, Hyderabad immediately after sacrifice by cervical dislocation. Animal care and protocols were in accordance with and approved by Institutional Animal Ethics Committee. Lenses were dissected from the eyes by anterior approach. Each isolated lens was incubated in 2 ml of modified of TC-199 (Sigma) medium with antibiotics. Osmolarity of the medium was adjusted to 295 milli osmomoles using an osmometer (Micro Osmometer; Model-210, Fiske Associates, Norwood, MA, USA). Lenses were cultured as described previously, [33]. Lenses were incubated at 37°C under 95% air and 5% CO2 in the absence or presence of the various dementia associated peptides dissolved in DMSO for a period of 96 h. All the reagents/chemicals used for lens organ culture were filtered through 0.2 µm Millipore disc filters. Final concentration of a given dementia associated peptides in the culture medium was kept at 10 µM. Medium was changed every 24 h. At the end of incubation, lenses were kept on a grid (12/cm) for assessing the transparency by placing them above a light source.
Lenses were homogenized in 10 vol. of 0.05 M Tris buffer (pH 8.0), containing 0.1 M NaCl and 0.02% sodium azide. The homogenate was centrifuged at 15 000 g for 30 min at 4°C and the resulting supernatant was collected (soluble fraction). The pellet was washed thrice and constituted in the same buffer (insoluble fraction). Protein content in soluble and insoluble fractions was estimated by Lowry's method.

Aβ (1–42): column label of Table 1; text gives the same value for Aβ-40
Insoluble protein (15 000 g pellet, Lowry's method, Control 95): 145 mg/g lens
Soluble protein (15 000 g supernatant, Lowry's method, Control 421): 310 mg/g lens
Total protein (Lowry's method, Control 518): 464 mg/g lens
% Soluble protein (in relation to the amount of total protein, Control 81): 67%

Reference: publication PMC2488398, “Concurrence of Danish Dementia and Cataract: Insights from the Interactions of Dementia Associated Peptides with Eye Lens α-Crystallin” (PLoS ONE, 2008)
